US6987121B2, “Compositions and methods for hepatoprotection and treatment of cholestasis” (SmithKline Beecham Corporation, priority 2002, dated 2006)

How the values were obtained:
[1] = test system: bile duct-ligated (BDL) rats; experiment: Histological examination of liver samples from BDL rats; type: in vivo, Sprague-Dawley rats; settings: GW4064 100 mg/kg daily i.p. for 7 days
Method: (§1) Male Sprague-Dawley rats (approximately 300 grams) were obtained from Charles River Laboratories Inc (Raleigh, N.C.) and were maintained on a 12 hour light/12 hour dark light cycle. Animals were anesthetized by the administration of 2-3% isoflurane. Laparotomy was performed under sterile technique and the liver and duodenum gently displaced to reveal the common bile duct. The bile duct was separated from the surrounding tissue and two ligatures of 4-0 Ethilon were placed around it. The bile duct was clamped between the two ligatures with an aneurysm clamp and the ligatures drawn tight. An additional ligature was placed proximal to the first (near the liver). The clamp was removed and the bile duct severed between the ligatures. The muscle wall was closed with 4-0 Vicryl and the skin closed with staples. Animals were allowed to recover for 24 hours prior to administration of drug (GW4064, 100 mg/kg daily in corn oil/10% DMSO) or vehicle alone (in corn oil/10% DMSO) by a daily intra-peritoneal injection for 7 days prior to sacrifice. Animals were allowed food and water ad libitum throughout the study period. Animals were anesthetized with 2-3% isoflurane and sacrificed by cardiac puncture.
A section of the liver was removed and placed into 10% neutral buffered formalin. […]

[2] = test system: bile duct-ligated (BDL) rats; experiment: Serum markers of liver function in bile duct-ligated (BDL) rats; type: in vivo, Sprague-Dawley rats; settings: GW4064 100 mg/kg daily i.p. for 7 days
Method: as §1
Serum levels of alanine aminotransferase (ALT), asparate aminotransferase (AST), total bilirubin (TBILI), and γ-glutamyl transferase (GGT) were determined using an Instrumentation Laboratory Ilab600 clinical chemistry analyzer. Serum bile acids (BILEA) were determined using a commercially available assay (Sigma Chemical Co., St Louis, Mo.).

## CC(C)c1onc(-c2c(Cl)cccc2Cl)c1COc1ccc(/C=C/c2cccc(C(=O)O)c2)c(Cl)c1 [GW4064]
[1]
  Liver histology: bile duct proliferation: only bile duct proliferation
[1]; vehicle-treated showed large areas of necrosis
  Liver histology: necrosis: no necrosis
[2]
  Liver function as defined by the panel of enzymes examined: pronounced improvement in liver function
[2]; corn oil/10% DMSO
  Serum level of ALT, as % of that in BDL rats receiving vehicle alone: 23%
  Serum level of AST, as % of that in BDL rats receiving vehicle alone: 27%
  Serum level of GGT, as % of that in BDL rats receiving vehicle alone: 34%
  Serum level of TBILI, as % of that in BDL rats receiving vehicle alone: 49%
